Results reported in patent US20080318869A1, “Method to Promote Wound Healing” (IMMUNEREGEN BIOSCIENCES, INC., priority 2004, published 2008).

System: tail wounds of irradiated mice
Assay: Healing of tail bite wounds in irradiated mice
Format: in vivo
Settings: male mice with tail bite wounds; 7, 8, or 9 Gy 60 Cobalt gamma radiation single acute dose; direct muscle injection 0.5 ml bolus at 2 micromolar; 7 weeks post-radiation exposure; saline controls had unhealed tail wounds
Protocol: The male mice fought while confined with four mice/bin. They sustained extensive tail wounds from biting. We then exposed the mice to either 7, 8, or 9 Gy 60 Cobalt gamma radiation in a single acute dose. [Sar^9,Met(02)^11]-substance P was administered by direct muscle injection in a 0.5 ml bolus at 2 micromolar concentration. Control animals received injections of normal saline.

## [Sar^9,Met(O2)^11]-substance P
  unhealed tail wounds: did not have any unhealed tail wounds
